Drawing on article PMC3340383, “Synthesis and Evaluation of a Series of 2-Substituted-5-Thiopropylpiperazine (Piperidine)-1,3,4-Oxadiazoles Derivatives as Atypical Antipsychotics” (PLoS ONE, 2012), this text covers Ki and melting point for 15 compounds.

Where two headings read alike, the source gives them in different places. Where only a bound is given, the exact number is not on record here.

Data set [1] has as its target T1, dopamine D2 receptor (Rattus norvegicus, UniProt P61169).
T1 construct: Rat striatum was homogenized in 20 volumes of ice-cold 50 mM Tris-HCl buffer; from tissue; host or cells: rat striatum
Nature of the data set: D2 dopaminergic binding assay ([3H]spiperone, rat striatum). Conditions: read-out: Ki±SEM, D2. As to the method: (§1) All the new compounds were dissolved in 5% DMSO. The following specific radioligands and tissue sources were used: (a) serotonin 5-HT1A receptor, [^3H]8-OH-DPAT, rat brain cortex; (b) serotonin 5-HT2A receptor, [^3H]ketanserin, rat brain cortex; (c) serotonin 5-HT2C receptor, [^3H]mesulergine, rat brain cortex; (d) dopamine D2 receptor, [^3H]spiperone, rat striatum; (e) dopamine D3 receptor, [^3H]spiperone, rat olfactory tubercle (f) histamine H1 receptor, [^3H] pyrilamine, guinea pig cerebellum.
(§2) Total binding was determined in the absence of no-specific binding and compounds. Specific binding was determined in the presence of compounds. Non-specific binding was determined as the difference between total and specific binding.
(§3) Percentage of inhibition (%) = (total binding − specific binding)×100%/(total binding − nonspecific binding).
(§4) Ki values were calculated based on the Cheng and Prussoff equation: Ki = IC50/(1+C/Kd) where C represents the concentration of the hot ligand used and Kd its receptor dissociation constant were calculated for each labeled ligand. Mean Ki values and SEM were reported for at least three independent experiments.
Rat striatum was homogenized in 20 volumes of ice-cold 50 mM Tris-HCl buffer (pH 7.7) using an ULTRA TURAX homogeniser, and centrifuged twice for 10 min at 48,000 g with resuspension of the pellet in fresh buffer. The final pellet was resuspended in 50 mM ice-cold Tris-HCl containing 120 mM NaCl, 5 mM KCl, 2 mM CaCl2, 1 mM MgCl2, 0.1% ascorbic acid and 5 µM pargyline.
Total binding each assay tube was added 900 µL of the tissue suspension, 50 µL of 0.5 nM [^3H]spiperone (16.2 Ci/mmol; Perkin Elmer Life Sciences, Boston, MA, USA), 50 µL Tris-HCl buffer containing 120 mM NaCl, 5 mM KCl, 2 mM CaCl2, 1 mM MgCl2, 0.1% ascorbic acid and 5 µM pargyline.
Non-specific binding each assay tube was added 900 µL of the tissue suspension, 50 µL of 0.5 nM [^3H]spiperone, 50 µL of 10 µM (+)-butaclamol.
Specific binding each assay tube was added 900 µL of the tissue suspension, 50 µL of 0.5 nM [^3H]spiperone, 50 µL of new compounds or reference drug.
(§5) The incubation was followed by a rapid vacuum filtration through Whatman GF/B glass filters, and the filtrates were washed twice with 5 mL cold buffer and transferred to scintillation vials. Scintillation fluid (3.0 mL) was added and the radioactivity bound was measured using a Beckman LS 6500 liquid scintillation counter.

Data set [2] deals with T2, serotonin 5-HT1A receptor (Rattus norvegicus, UniProt P19327).
T2 construct: Rat cerebral cortex was homogenized in 20 volumes of ice-cold Tris-HCl buffer; from tissue; host or cells: rat brain (cerebral) cortex
T2 sequence (P19327 1-422): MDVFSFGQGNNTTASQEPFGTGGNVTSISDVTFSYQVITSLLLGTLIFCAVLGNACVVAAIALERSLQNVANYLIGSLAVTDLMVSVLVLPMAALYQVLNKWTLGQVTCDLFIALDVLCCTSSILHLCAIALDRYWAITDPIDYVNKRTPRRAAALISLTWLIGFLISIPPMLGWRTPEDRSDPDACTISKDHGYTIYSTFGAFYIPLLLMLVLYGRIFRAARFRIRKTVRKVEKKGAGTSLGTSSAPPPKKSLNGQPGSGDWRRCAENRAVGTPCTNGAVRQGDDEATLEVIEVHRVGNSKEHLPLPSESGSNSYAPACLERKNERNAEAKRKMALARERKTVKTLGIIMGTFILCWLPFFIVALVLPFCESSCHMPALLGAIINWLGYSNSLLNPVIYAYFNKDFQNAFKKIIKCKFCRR
Nature of the data set: 5-HT1A binding assay ([3H]8-OH-DPAT, rat brain cortex). The note with it: read-out: Ki±SEM, 5HT1A. As to the method: as §1, §2, §3, §4
Rat cerebral cortex was homogenized in 20 volumes of ice-cold Tris-HCl buffer (50 mM, pH 7.7) using an ULTRA TURAX homogeniser, and was then centrifuged at 32000 g for 10 min. […] The final pellet was resuspended in Tris-HCl buffer containing 10 µM Pargyline, 4 mM CaCl2 and 0.1% ascorbic acid.
Total binding each assay tube was added 900 µL of the tissue suspension, 50 µL of 0.5 nM [^3H]8-OH-DPAT (187.4 Ci/mmol, Perkin Elmer Life Sciences, Boston, MA, USA), 50 µL Tris-HCl buffer containing 10 µM Pargyline, 4 mM CaCl2 and 0.1% ascorbic acid.
Non-specific binding each assay tube was added 900 µL of the tissue suspension, 50 µL of 0.5 nM [^3H]8-OH-DPAT, 50 µL of 10 µM serotonin.
Specific binding each assay tube was added 900 µL of the tissue suspension, 50 µL of 0.5 nM [^3H]8-OH-DPAT, 50 µL of new compounds or reference drug.
The incubation was followed by a rapid vacuum filtration through Whatman GF/B glass filters, and the filtrates were washed twice with 5mL cold buffer and transferred to scintillation vials. Scintillation fluid (3.0 mL) was added and the radioactivity bound was measured using a Beckman LS 6500 liquid scintillation counter.

The target of data set [3] is T3, serotonin 5-HT2A receptor (Rattus norvegicus, UniProt P14842).
T3 construct: Rat cerebral cortex was homogenized in 20 volumes of ice-cold Tris-HCl buffer; from tissue; host or cells: rat brain (cerebral) cortex
Put plainly: 5-HT2A binding assay ([3H]ketanserin, rat brain cortex). The note with it: read-out: Ki±SEM, 5HT2A. On the procedure:
as §1, §2, §3, §4
Rat cerebral cortex was homogenized in 20 volumes of ice-cold Tris-HCl buffer (50 mM, pH 7.7) using an ULTRA TURAX homogeniser, and centrifuged at 32000 g for 20 min. The resulting pellet was resuspended in the same quantity of the buffer centrifuged for 20 min. The final pellet was resuspended in 50 volumes of the Tris-HCl buffer.
Total binding each assay tube was added 900 µL of the tissue suspension, 50 µL of 0.6 nM [^3H]ketanserin (60.0 Ci/mmol, Perkin Elmer Life Sciences, Boston, MA, USA), 50 µL Tris-HCl buffer.
Non-specific binding each assay tube was added 900 µL of the tissue suspension, 50 µL of 0.6 nM [^3H]ketanserin, 50 µL of 10 µM methisergide.
Specific binding each assay tube was added 900 µL of the tissue suspension, 50 µL of 0.6 nM [^3H]ketanserin, […] of new compounds or reference drug.
as §5

Where [4] appears, read: [3H]spiperone, rat striatum, mean of three experiments, >10000 marked b: Ki not calculated, inhibition at 10 µM too low.
The mark [5] stands for this setting: [3H]8-OH-DPAT, rat brain cortex, mean of three experiments, >10000 marked b: Ki not calculated, inhibition at 10 µM too low.
Where [6] appears, read: [3H]ketanserin, rat brain cortex, mean of three experiments, >10000 marked b: Ki not calculated, inhibition at 10 µM too low.

T1 sequence (P61169 whole entry): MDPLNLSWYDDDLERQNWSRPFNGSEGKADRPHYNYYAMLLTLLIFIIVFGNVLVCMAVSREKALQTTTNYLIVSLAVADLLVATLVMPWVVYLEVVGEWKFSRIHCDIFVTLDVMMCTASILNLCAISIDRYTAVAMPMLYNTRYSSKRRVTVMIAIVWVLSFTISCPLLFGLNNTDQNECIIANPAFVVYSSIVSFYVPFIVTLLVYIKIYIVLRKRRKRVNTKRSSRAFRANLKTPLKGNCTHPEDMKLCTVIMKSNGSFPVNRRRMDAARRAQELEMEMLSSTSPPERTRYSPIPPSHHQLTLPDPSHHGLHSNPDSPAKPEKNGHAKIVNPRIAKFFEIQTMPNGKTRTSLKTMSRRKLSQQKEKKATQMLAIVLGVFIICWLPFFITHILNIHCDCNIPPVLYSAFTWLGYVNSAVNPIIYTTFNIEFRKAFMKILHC
T3 sequence (P14842 whole entry): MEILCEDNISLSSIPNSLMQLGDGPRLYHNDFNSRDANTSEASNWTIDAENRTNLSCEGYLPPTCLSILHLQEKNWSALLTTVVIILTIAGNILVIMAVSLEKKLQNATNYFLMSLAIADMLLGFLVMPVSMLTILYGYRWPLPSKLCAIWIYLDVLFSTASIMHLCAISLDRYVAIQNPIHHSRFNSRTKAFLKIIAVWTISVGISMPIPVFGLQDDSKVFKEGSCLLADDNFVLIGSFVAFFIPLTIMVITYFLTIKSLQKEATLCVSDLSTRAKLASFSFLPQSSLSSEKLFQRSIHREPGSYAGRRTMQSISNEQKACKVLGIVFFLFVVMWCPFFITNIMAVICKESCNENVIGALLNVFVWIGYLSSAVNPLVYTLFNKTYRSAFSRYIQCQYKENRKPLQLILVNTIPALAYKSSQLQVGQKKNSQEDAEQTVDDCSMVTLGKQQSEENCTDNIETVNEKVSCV

With `COc1ccccc1N1CCN(CCCSc2nnc(-c3ccccc3)o2)CC1` [Compound 8, 2-((3-(4-(2-methoxyphenyl)piperazin-1-yl)propyl)thio)-5-phenyl-1,3,4-oxadiazole], the Ki in data set [1], in data set [2] and in data set [3] was greater than 10000 nM in each case.
On to `COc1ccc(-c2nnc(SCCCN3CCN(c4nsc5ccccc45)CC3)o2)cc1` [Compound 13, 2-((3-(4-(benzo[d]isothiazol-3-yl)piperazin-1-yl)propyl)thio)-5-(4-methoxyphenyl)-1,3,4-oxadiazole], for which the inhibitory constant (Ki) is 96.7 ± 9.5 nM in data set [1] (setting [4]), greater than 10000 nM in data set [2] (setting [5]) and 17.2 ± 1.6 nM in data set [3] (setting [6]).
With `c1ccc2c(N3CCN(CCCSc4nnc(-c5ccncc5)o4)CC3)nsc2c1` [Compound 25, 2-(3-(4-(benzo[d]isothiazol-3-yl)piperazin-1-yl)propylthio)-5-(pyridin-4-yl)-1,3,4-oxadiazole], the melting point is 93 to 94 °C. Also, in data set [1], the Ki was greater than 10000 nM. For the same compound, in data set [2], the inhibition constant Ki was greater than 10000 nM. Besides, the Ki in data set [3] worked out at 390 ± 36.5 nM.
In the case of `Fc1ccc2c(C3CCN(CCCSc4nnc(-c5cccs5)o4)CC3)noc2c1` [Compound 24, 2-(3-(4-(6-fluorobenzo[d]isoxazol-3-yl)piperidin-1-yl)propylthio)-5-(thiophen-2-yl)-1,3,4-oxadiazole], the Ki is 91 ± 11.2 nM in data set [1] (setting [4]), 96.6 ± 10.3 nM in data set [2] (setting [5]) and 50.3 ± 6.5 nM in data set [3] (setting [6]).
In turn, `Fc1ccc2c(C3CCN(CCCSc4nnc(-c5ccc(C(F)(F)F)cc5)o4)CC3)noc2c1` [Compound 18, 2-(3-(4-(6-fluorobenzo[d]isoxazol-3-yl)piperidin-1-yl)propylthio)-5-(4-(trifluoromethyl)phenyl)-1,3,4-oxadiazole] displayed a melting point of 122 to 124 °C. The Ki in data set [1] came to 94.5 ± 8.9 nM. Besides, in data set [2], the Ki amounted to 51 ± 4.9 nM. In addition, the Ki in data set [3] was found to be 24.7 ± 2.8 nM.
Compound `Clc1cccc(N2CCN(CCCSc3nnc(-c4ccccc4)o3)CC2)c1Cl` [Compound 9, 2-((3-(4-(2,3-dichlorophenyl)piperazin-1-yl)propyl)thio)-5-phenyl-1,3,4-oxadiazole] yielded a melting point of 82 to 84 °C. In addition, the Ki in data set [1] was greater than 10000 nM. Also, the Ki in data set [2] is greater than 10000 nM. Besides, the Ki in data set [3] was greater than 10000 nM.
For the compound `Fc1ccc(-c2nnc(SCCCN3CCN(c4nsc5ccccc45)CC3)o2)cc1` [Compound 19, 2-(3-(4-(benzo[d]isothiazol-3-yl)piperazin-1-yl)propylthio)-5-(4-fluorophenyl)-1,3,4-oxadiazole], the Ki in data set [1] (setting [4]), in data set [2] (setting [5]) and in data set [3] (setting [6]) was greater than 10000 nM throughout.
As to `Fc1ccc2c(C3CCN(CCCSc4nnc(-c5ccccc5)o4)CC3)noc2c1` [Compound 12, 2-(3-(4-(6-fluorobenzo[d]isoxazol-3-yl)piperidin-1-yl)propylthio)-5-phenyl-1,3,4-oxadiazole], the melting point was in the range of 106 to 107 °C. For the same compound, the Ki in data set [1] came to 2970 ± 381 nM. Also, the Ki in data set [2] was 18.9 ± 1.6 nM. The Ki in data set [3] stood at 11.3 ± 1.2 nM.
Regarding `Clc1ccc(-c2nnc(SCCCN3CCN(c4nsc5ccccc45)CC3)o2)cc1` [Compound 15, 2-((3-(4-(benzo[d]isothiazol-3-yl)piperazin-1-yl)propyl)thio)-5-(4-chlorophenyl)-1,3,4-oxadiazole], the Ki in data set [1] (setting [4]) was 126 ± 13.5 nM; in data set [2] (setting [5]), 14.2 ± 1.3 nM; in data set [3] (setting [6]) it was 27.2 ± 2.8 nM.
Turning to `c1csc(-c2nnc(SCCCN3CCN(c4nsc5ccccc45)CC3)o2)c1` [Compound 23, 2-(3-(4-(benzo[d]isothiazol-3-yl)piperazin-1-yl)propylthio)-5-(thiophen-2-yl)-1,3,4-oxadiazole], the inhibition constant (Ki) was greater than 10000 nM in data set [1] (setting [4]), 450 ± 49.8 nM in data set [2] (setting [5]) and 54.1 ± 6.9 nM in data set [3] (setting [6]).
In the case of `c1ccc(-c2nnc(SCCCN3CCN(c4nsc5ccccc45)CC3)o2)cc1` [Compound 11, 2-((3-(4-(benzo[d]isothiazol-3-yl)piperazin-1-yl)propyl)thio)-5-phenyl-1,3,4-oxadiazole], the melting point lay in the range of 69 to 71 °C. Also, the Ki in data set [1] was 2570 ± 321 nM. In addition, the Ki in data set [2] worked out at 19 ± 2.3 nM. Besides, in data set [3], the Ki is 61.4 ± 5.8 nM.
With `Fc1ccc2c(C3CCN(CCCSc4nnc(-c5ccncc5)o4)CC3)noc2c1` [Compound 26, 2-(3-(4-(6-fluorobenzo[d]isoxazol-3-yl)piperidin-1-yl)propylthio)-5-(pyridin-4-yl)-1,3,4-oxadiazole], the values for the Ki in data set [1] (setting [4]), in data set [2] (setting [5]) and in data set [3] (setting [6]) were 260 ± 32.1 nM, 60.6 ± 8.6 nM and 59.2 ± 7.6 nM, respectively.
For `c1ccc2c(-c3nnc(SCCCN4CCN(c5nsc6ccccc56)CC4)o3)cccc2c1` [Compound 21, 2-(3-(4-(benzo[d]isothiazol-3-yl)piperazin-1-yl)propylthio)-5-(naphthalen-1-yl)-1,3,4-oxadiazole], in that order: 138 ± 13.6 nM, 346 ± 35.9 nM and 114 ± 12.1 nM.
For `Fc1ccc(-c2nnc(SCCCN3CCC(c4noc5cc(F)ccc45)CC3)o2)cc1` [Compound 20, 2-(3-(4-(6-fluorobenzo[d]isoxazol-3-yl)piperidin-1-yl)propylthio)-5-(4-fluorophenyl)-1,3,4-oxadiazole], the values for the Ki in data set [1] (setting [4]), in data set [2] (setting [5]) and in data set [3] (setting [6]) were 125 ± 12.4 nM, 14.8 ± 1.5 nM and 15.8 ± 1.3 nM, respectively.
As for `FC(F)(F)c1ccc(-c2nnc(SCCCN3CCN(c4nsc5ccccc45)CC3)o2)cc1` [Compound 17, 2-((3-(4-(benzo[d]isothiazol-3-yl)piperazin-1-yl)propyl)thio)-5-(4-(trifluoromethyl)phenyl)-1,3,4-oxadiazole], the Ki in data set [1] (setting [4]) was 487 ± 46.3 nM; in data set [2] (setting [5]) it was greater than 10000 nM; in data set [3] (setting [6]), 50.8 ± 5.3 nM.
